Assay results as given in patent US20110059962A1, “TRANSCRIPTION FACTOR MODULATING COMPOUNDS AND METHODS OF USE THEREOF” (priority 2009, published 2011).

Experiments:
[1] = test system: Y. pseudotuberculosis cytotoxicity toward J774 cells; test: microbe, parasite or virus in culture; settings: Yersinia pseudotuberculosis, J774, read-out: % Cytotoxicity
LcrF (VirF) = LcrF (VirF) (Yersinia pestis, UniProt P28808); test: biochemical; format: binding, Y. pseudotuberculosis
[2] = test system: P. aeruginosa cytotoxicity toward J774 cells; test: Inhibition of P. aeruginosa cytotoxicity toward J774 macrophage-like cells, whole cell LDH release assay (CytoTox 96); set-up: dose or concentration left out as unconfirmed; settings: Pseudomonas aeruginosa, J774, read-out: % Cytotoxicity
ExsA = target: T1, ExsA (Pseudomonas aeruginosa, UniProt P26993); test: Inhibition of ExsA-DNA binding, cell-free chemiluminescence assay; set-up: species or system P. aeruginosa
T1 construct: made in house
T1 sequence (P26993 1-278): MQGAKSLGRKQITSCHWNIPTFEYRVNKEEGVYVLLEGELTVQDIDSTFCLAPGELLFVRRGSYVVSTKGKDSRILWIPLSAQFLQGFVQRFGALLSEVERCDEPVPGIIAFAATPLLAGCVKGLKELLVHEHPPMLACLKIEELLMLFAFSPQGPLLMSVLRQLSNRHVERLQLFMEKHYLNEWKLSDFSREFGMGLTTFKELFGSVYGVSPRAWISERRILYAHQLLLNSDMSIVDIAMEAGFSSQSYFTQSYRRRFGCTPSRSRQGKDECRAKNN

SoxS = target: T2, SoxS (Escherichia coli, UniProt P0A9E2); test: Inhibition of SoxS-DNA binding, cell-free chemiluminescence assay; set-up: species or system E. coli
T2 construct: made in house; host or cells: E. coli
T2 sequence (P0A9E2 1-107): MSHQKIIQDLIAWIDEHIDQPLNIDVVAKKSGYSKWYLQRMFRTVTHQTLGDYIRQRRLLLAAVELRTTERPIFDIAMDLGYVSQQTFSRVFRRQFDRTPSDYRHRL

LcrF (VirF), sequence (P28808 whole entry, looked up): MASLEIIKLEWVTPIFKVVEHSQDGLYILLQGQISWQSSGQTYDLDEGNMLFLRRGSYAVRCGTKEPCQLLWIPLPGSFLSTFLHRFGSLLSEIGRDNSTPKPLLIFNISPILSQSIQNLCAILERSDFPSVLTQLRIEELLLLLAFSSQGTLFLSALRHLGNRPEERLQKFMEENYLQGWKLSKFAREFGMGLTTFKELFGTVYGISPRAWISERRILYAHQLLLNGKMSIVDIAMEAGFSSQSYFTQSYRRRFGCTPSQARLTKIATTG

| Compound | activity at 50 µg/mL [1] [%] | IC50 (LcrF (VirF)) [µM] | activity [2] [%] | IC50 (ExsA) [µM] | IC50 (SoxS) [µM] |
| --- | --- | --- | --- | --- | --- |
| O=C(Nc1ccc(-c2nc3ccc([N+](=O)[O-])cc3n2O)cc1)c1ccc(OCC(F)(F)F)nc1 [Compound X, N-[4-(1-Hydroxy-6-nitro-1H-benzoimidazol-2-yl)-phenyl]-6-(2,2,2-trifluoro-ethoxy)-nicotinamide] | 75 to 99 | 25 to 50 | 75 to 99 | 25 to 50 | – |
| CC(=O)c1ccc2nc(-c3ccc(NC(=O)/C=C/c4ccc(F)cc4)cc3)n(O)c2c1 [Compound AB, (E)-N-[4-(6-Acetyl-1-hydroxy-1H-benzoimidazol-2-yl)-phenyl]-3-(4-fluoro-phenyl)-acrylamide] | 75 to 99 | 25 to 50 | 75 to 99 | – | – |
| O=C(/C=C/c1ccc(F)cc1)Nc1ccc(-c2nc3ccc(Cl)cc3n2O)cc1 [AG] | 75 to 99 | > 50 | 75 to 99 | – | – |
| CC(=O)c1ccc(C(=O)Nc2ccc(-c3nc4c(CC(=O)O)cc([N+](=O)[O-])cc4n3O)cc2)cc1 [Compound R, {2-[4-(4-Acetyl-benzoylamino)-phenyl]-1-hydroxy-6-nitro-1H-benzoimidazol-4-yl}-acetic acid] | 75 to 99 | 25 to 50 | 75 to 99 | 25 to 50 | – |
| CC(=O)c1ccc(/C=C/C(=O)Nc2ccc(-c3nc4ccc(C#N)cc4n3O)cc2)cn1 [Compound A, (E)-3-(6-Acetyl-pyridin-3-yl)-N-[4-(6-cyano-1-hydroxy-1H-benzoimidazol-2-yl)-phenyl]-acrylamide] | < 75 | 25 to 50 | < 75 | > 50 | – |
| N#Cc1ccc2nc(-c3ccc(NC(=O)c4ccc(-n5cccn5)nc4)cc3)n(O)c2c1 [Compound M, N-[4-(6-Cyano-1-hydroxy-1H-benzoimidazol-2-yl)-phenyl]-6-pyrazol-1-yl-nicotinamide] | < 75 | > 50 | 75 to 99 | – | > 50 |
| N#Cc1ccc2nc(-c3ccc(NC(=O)c4ccc(N5CCOCC5)nc4)cc3)n(O)c2c1 [Compound P, N-[4-(6-Cyano-1-hydroxy-1H-benzoimidazol-2-yl)-phenyl]-6-morpholin-4-yl-nicotinamide] | 75 to 99 | > 50 | 75 to 99 | < 10 | > 50 |
| CSc1ccc2nc(-c3ccc(NC(=O)/C=C/c4ccc(C(C)=O)cc4)cc3)n(O)c2c1 [Compound U, (E)-3-(4-Acetyl-phenyl)-N-[4-(1-hydroxy-6-methylsulfanyl-1H-benzoimidazol-2-yl)-phenyl]-acrylamide] | 75 to 99 | > 50 | 75 to 99 | 10 to 25 | – |
| CC(=O)c1ccc(/C=C/C(=O)Nc2ccc(-c3nc4ccc(Cl)cc4n3O)cc2)cc1 [B] | 75 to 99 | > 50 | 75 to 99 | 10 to 25 | – |
| O=C(O)Cc1cc([N+](=O)[O-])cc2c1nc(-c1ccc(NC(=O)/C=C/c3ccc(F)cc3)cc1)n2O [AH] | 75 to 99 | 10 to 25 | 75 to 99 | – | – |
| O=C(O)Cc1cc([N+](=O)[O-])cc2c1nc(-c1ccc(NC(=O)c3ccc(-n4ccnc4)cc3)cc1)n2O [Compound AA, {1-Hydroxy-2-[4-(4-imidazol-1-yl-benzoylamino)-phenyl]-6-nitro-1H-benzoimidazol-4-yl}-acetic acid] | < 75 | < 10 | < 75 | – | – |
| O=C(Nc1ccc(-c2nc3ccc([N+](=O)[O-])cc3n2O)cc1)c1ccnc(N2CCOCC2)c1 [Compound T] | < 75 | > 50 | 75 to 99 | > 50 | – |
| O=C(Nc1ccc(-c2nc3ccc([N+](=O)[O-])cc3n2O)cc1)c1ccc(-n2cccn2)nc1 [Compound I] | < 75 | 25 to 50 | 75 to 99 | 25 to 50 | – |
| O=C(/C=C/c1ccc(F)cc1)Nc1ccc(-c2nc3ccc(C(=O)O)cc3n2O)cc1 [Compound AI, 2-{4-[(E)-3-(4-Fluoro-phenyl)-acryloylamino]-phenyl}-3-hydroxy-3H-benzoimidazole-5-carboxylic acid] | < 75 | 25 to 50 | 75 to 99 | – | – |
| O=C(O)Cc1cc([N+](=O)[O-])cc2c1nc(-c1ccc(NC(=O)c3ccc(N4CCOCC4)nc3)cc1)n2O [Q] | 75 to 99 | 25 to 50 | 75 to 99 | 25 to 50 | – |
| CS(=O)(=O)c1ccc2nc(-c3ccc(NC(=O)/C=C/c4ccc(F)cc4)cc3)n(O)c2c1 [Compound AD, (E)-3-(4-Fluoro-phenyl)-N-[4-(1-hydroxy-6-methanesulfonyl-1H-benzoimidazol-2-yl)-phenyl]-acrylamide] | 75 to 99 | > 50 | 75 to 99 | – | – |

| Compound | activity at 50 µg/mL [1] [%] | IC50 (LcrF (VirF)) [µM] | activity [2] [%] | IC50 (ExsA) [µM] | IC50 (SoxS) [µM] |
| --- | --- | --- | --- | --- | --- |
| CN(C)c1ccc(C(=O)Nc2ccc(-c3nc4ccc([N+](=O)[O-])cc4n3O)cc2)cn1 [Y] | < 75 | 10 to 25 | 75 to 99 | 10 to 25 | – |
| O=C(/C=C/c1ccc(C(O)(O)C(F)(F)F)cc1)Nc1ccc(-c2nc3ccc([N+](=O)[O-])cc3n2O)cc1 [K] | 75 to 99 | > 50 | 75 to 99 | > 50 | – |
| N#Cc1ccc2nc(-c3ccc(NC(=O)/C=C/c4ccc(C(O)(O)C(F)(F)F)cc4)cc3)n(O)c2c1 [L] | 75 to 99 | > 50 | 75 to 99 | 10 to 25 | – |
| CN1CCN(c2ccc(C(=O)Nc3ccc(-c4nc5ccc([N+](=O)[O-])cc5n4O)cc3)cn2)CC1 [O] | 75 to 99 | > 50 | 75 to 99 | > 50 | – |
| CSc1ccc(/C=C/C(=O)Nc2ccc(-c3nc4ccc([N+](=O)[O-])cc4n3O)cc2)cc1 [C] | 75 to 99 | 10 to 25 | 75 to 99 | 10 to 25 | 25 to 50 |
| O=C(Nc1ccc(-c2nc3ccc([N+](=O)[O-])cc3n2O)cc1)c1ccc(N2CCCCC2)nc1 [S] | 75 to 99 | > 50 | 75 to 99 | 25 to 50 | – |
| CSc1ccc(/C=C/C(=O)Nc2ccc(-c3nc4ccc([N+](=O)[O-])cc4n3O)cc2)cn1 [G] | < 75 | 10 to 25 | < 75 | < 10 | > 50 |
| Cc1nc(C(F)(F)F)ccc1C(=O)Nc1ccc(-c2nc3ccc([N+](=O)[O-])cc3n2O)cc1 [Compound W, N-[4-(1-Hydroxy-6-nitro-1H-benzoimidazol-2-yl)-phenyl]-2-methyl-6-trifluoromethyl-nicotinamide] | 75 to 99 | > 50 | 75 to 99 | > 50 | – |
| O=C(Nc1ccc(-c2nc3ccc([N+](=O)[O-])cc3n2O)cc1)c1cccc(N2CCOCC2)n1 [Compound N, 6-Morpholin-4-yl-pyridine-2-carboxylic acid [4-(1-hydroxy-6-nitro-1H-benzoimidazol-2-yl)-phenyl]-amide] | 75 to 99 | > 50 | 75 to 99 | 10 to 25 | – |
| N#Cc1ccc2nc(-c3ccc(NC(=O)c4ccc(C(O)(O)C(F)(F)F)cc4)cc3)n(O)c2c1 [F] | 75 to 99 | > 50 | 75 to 99 | 10 to 25 | – |
| O=C(/C=C/c1ccc(F)cc1)Nc1ccc(-c2nc3ccccc3n2O)cc1 [Compound AE, (E)-3-(4-Fluoro-phenyl)-N-[4-(1-hydroxy-1H-benzoimidazol-2-yl)-phenyl]-acrylamide] | 75 to 99 | > 50 | 75 to 99 | – | – |
| O=C(/C=C/c1ccc(F)cc1)Nc1ccc(-c2nc3ccc(F)cc3n2O)cc1 [Compound AC, (E)-N-[4-(6-Fluoro-1-hydroxy-1H-benzoimidazol-2-yl)-phenyl]-3-(4-fluoro-phenyl)-acrylamide] | 75 to 99 | > 50 | 75 to 99 | – | – |
| CSc1ccc(/C=C/C(=O)Nc2ccc(-c3nc4ccc(C#N)cc4n3O)cc2)cn1 [Compound H, (E)-N-[4-(6-Cyano-1-hydroxy-1H-benzoimidazol-2-yl)-phenyl]-3-(6-methylsulfanyl-pyridin-3-yl)-acrylamide] | < 75 | 25 to 50 | < 75 | < 10 | > 50 |
| CN(C)c1ccc(/C=C/C(=O)Nc2ccc(-c3nc4ccc([N+](=O)[O-])cc4n3O)cc2)cn1 [Z] | 75 to 99 | > 50 | 75 to 99 | > 50 | – |
| O=C(Nc1ccc(-c2nc3ccc([N+](=O)[O-])cc3n2O)cc1)c1ccc(C(O)(O)C(F)(F)F)cc1 [E] | 75 to 99 | > 50 | 75 to 99 | > 50 | – |
| O=C(/C=C/c1ccc(F)cc1)Nc1ccc(-c2nc3ccc(C(F)(F)F)cc3n2O)cc1 [Compound AF, (E)-3-(4-Fluoro-phenyl)-N-[4-(1-hydroxy-6-trifluoromethyl-1H-benzoimidazol-2-yl)-phenyl]-acrylamide] | 75 to 99 | > 50 | 75 to 99 | – | – |
